According to patent US20230391786A1, “cGAS INHIBITORS” (Eli Lilly and Company, priority 2022, published 2023):
Where a name gives a salt, the structure may show the parent alone.

Columns and labels:
recombinant human cGAS = recombinant human cGAS (Homo sapiens (Human), UniProt Q8N884); test: In vitro inhibition assay of cGAS activity (cGAMP production, RapidFire mass spectrometry); type: biochemical; details: 10 nM recombinant human cGAS, 60 nM 75-bp dsDNA, ATP, GTP, room temperature 3 hours, read-out: IC50 (μM), In vitro inhibition assay for Compounds 95-348
Sequence of recombinant human cGAS (Q8N884 whole entry): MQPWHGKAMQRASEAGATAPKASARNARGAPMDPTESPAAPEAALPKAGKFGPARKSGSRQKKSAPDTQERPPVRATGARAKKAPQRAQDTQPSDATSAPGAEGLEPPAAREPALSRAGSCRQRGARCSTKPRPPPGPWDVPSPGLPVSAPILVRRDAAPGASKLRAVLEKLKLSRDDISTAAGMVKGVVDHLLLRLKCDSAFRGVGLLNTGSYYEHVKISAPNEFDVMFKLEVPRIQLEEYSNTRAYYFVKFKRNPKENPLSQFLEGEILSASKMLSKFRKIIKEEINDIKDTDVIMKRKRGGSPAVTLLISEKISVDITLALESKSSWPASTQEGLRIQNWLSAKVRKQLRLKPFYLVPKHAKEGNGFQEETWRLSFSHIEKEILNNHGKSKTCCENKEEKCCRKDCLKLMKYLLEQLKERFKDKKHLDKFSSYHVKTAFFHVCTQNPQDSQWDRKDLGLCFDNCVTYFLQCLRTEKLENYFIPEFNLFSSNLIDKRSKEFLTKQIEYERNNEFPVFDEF
In short: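 Product cGAMP was quantified by RapidFire MS against a difluoro-cGAMP internal standard after a formic acid quench. The reaction contained 10 nM recombinant full-length human cGAS, 75-bp dsDNA (60 nM), ATP and GTP (50 μM) and ran for 3 h at room temperature. IC50 values came from 4-parameter nonlinear regression.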

[1] = system: cGAS activity in THP1 cells (IFNb as marker); test: Cellular assay to measure cGAS activity (IFNb production in PMA-differentiated THP1 cells stimulated by RDG-Adenovirus-GFP); type: cell-based, human; details: Homo sapiens, THP-1, THP1 cells, PMA differentiated, RDG-Adenovirus-GFP 1000 MOI, IFNb AlphaLISA, overnight incubation; read-out: IC50 (μM), Cellular assay for Compounds 95-348
In short: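 The readout is secreted IFNb measured by AlphaLISA after overnight compound exposure. THP1 cells, differentiated with PMA for 24 h and rested overnight, were infected with RDG-Adenovirus-GFP (1000 MOI, 4 h) before compounds were added; IC50 came from a 4-parameter logistic fit of inhibition against log concentration.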

| IC50 (recombinant human cGAS) | IC50 [1] | SMILES |
| --- | --- | --- |
| 0.0245 µM | 1.13 µM | Clc1cc(NC2COC2)c2c(-c3cn[nH]c3)c[nH]c2c1Cl [Example 177, 6,7-Dichloro-N-(oxetan-3-yl)-3-(1H-pyrazol-4-yl)-1H-indol-4-amine] |
| 0.0413 µM | 3.62 µM | O=C(Cc1[nH]c2c(Cl)c(Cl)ccc2c1-c1cn[nH]c1)NCc1cc[nH]n1 [Example 178, 2-[6,7-Dichloro-3-(1H-pyrazol-4-yl)-1H-indol-2-yl]-N-(1H-pyrazol-3-ylmethyl) acetamide] |
| 0.018 µM | 1.85 µM | O=C1NCC(C(=O)N2CCn3c(c(-c4cn[nH]c4)c4ccc(Cl)c(Cl)c43)C2)O1 (stereo not drawn) [Example 180, 5-[6,7-Dichloro-10-(1H-pyrazol-4-yl)-3,4-dihydro-1H-pyrazino[1,2-a]indole-2-carbonyl]oxazolidin-2-one] |
| 0.0416 µM | > 10 µM | CN(C)C(=O)NCC(=O)N1CCn2c(c(-c3cn[nH]c3)c3ccc(Cl)c(Cl)c32)C1 [Example 182, 3-[2-[6,7-Dichloro-10-(1H-pyrazol-4-yl)-3,4-dihydro-1H-pyrazino[1,2-a]indol-2-yl]-2-oxo-ethyl]-1,1-dimethyl-urea] |
| 0.0118 µM | 0.875 µM | FCCOc1cc(Cl)c(Cl)c2[nH]cc(-c3cn[nH]c3)c12 [Example 183, 6,7-Dichloro-4-(2-fluoroethoxy)-3-(1H-pyrazol-4-yl)-1H-indole] |
| 0.0385 µM | 1.13 µM | FC(F)COc1cc(Cl)c(Cl)c2[nH]cc(-c3cn[nH]c3)c12 [Example 184, 6,7-Dichloro-4-(2,2-difluoroethoxy)-3-(1H-pyrazol-4-yl)-1H-indole] |
| 0.077 µM | 3.44 µM | O=C(Nc1cc(Cl)c(Cl)c2[nH]cc(-c3cn[nH]c3)c12)C(O)CO (stereo not drawn) [Example 185, N-[6,7-Dichloro-3-(1H-pyrazol-4-yl)-1H-indol-4-yl]-2,3-dihydroxy-propanamide] |
| 0.0127 µM | 0.909 µM | OCC(F)(F)CNc1cc(Cl)c(Cl)c2[nH]cc(-c3cn[nH]c3)c12 [Example 186, 3-[[6,7-Dichloro-3-(1H-pyrazol-4-yl)-1H-indol-4-yl]amino]-2,2-difluoro-propan-1-ol] |
| 0.0104 µM | 0.326 µM | OCC(F)CNc1cc(Cl)c(Cl)c2[nH]cc(-c3cn[nH]c3)c12 (stereo not drawn) [Example 187, 3-[[6,7-Dichloro-3-(1H-pyrazol-4-yl)-1H-indol-4-yl]amino]-2-fluoro-propan-1-ol] |
| 0.0541 µM | 2.45 µM | FC(F)CCNc1cc(Cl)c(Cl)c2[nH]cc(-c3cn[nH]c3)c12 [Example 188, 6,7-Dichloro-N-(3,3-difluoropropyl)-3-(1H-pyrazol-4-yl)-1H-indol-4-amine] |
| 0.0272 µM | 1.89 µM | CC(C)(O)C(=O)NC1CCc2c(-c3cn[nH]c3)c3ccc(Cl)c(Cl)c3n2C1 (stereo not drawn) [Example 189, N-[3,4-Dichloro-10-(1H-pyrazol-4-yl)-6,7,8,9-tetrahydropyrido[1,2-a]indol-7-yl]-2-hydroxy-2-methyl-propanamide] |
| 0.0361 µM | 2.19 µM | O=C(NC1CCc2c(-c3cn[nH]c3)c3ccc(Cl)c(Cl)c3n2C1)C1(O)CCOCC1 (stereo not drawn) [Example 190, N-[3,4-Dichloro-10-(1H-pyrazol-4-yl)-6,7,8,9-tetrahydropyrido[1,2-a]indol-7-yl]-4-hydroxy-tetrahydropyran-4-carboxamide] |
| 0.0763 µM | 8.53 µM | Clc1ccc2c(-c3cn[nH]c3)c3n(c2c1Cl)CC(Nc1ncccn1)CC3 (stereo not drawn) [Example 191, 3,4-Dichloro-10-(1H-pyrazol-4-yl)-N-pyrimidin-2-yl-6,7,8,9-tetrahydropyrido[1,2-a]indol-7-amine] |
| 0.0379 µM | 1.29 µM | OCC(CO)CNc1cc(Cl)c(Cl)c2[nH]cc(-c3cn[nH]c3)c12 [Example 192, 2-[[[6,7-Dichloro-3-(1H-pyrazol-4-yl)-1H-indol-4-yl]amino]methyl]propane-1,3-diol] |
| 0.00322 µM | 0.143 µM | OCCCOc1cc(Cl)c(Cl)c2[nH]cc(-c3cn[nH]c3)c12 [Example 193, 3-[[6,7-Dichloro-3-(1H-pyrazol-4-yl)-1H-indol-4-yl]oxy]propan-1-ol] |
| 0.0184 µM | 1.29 µM | OCC(CO)COc1cc(Cl)c(Cl)c2[nH]cc(-c3cn[nH]c3)c12 [Example 194, 2-[[6,7-Dichloro-3-(1H-pyrazol-4-yl)-1H-indol-4-yl]oxymethyl]propane-1,3-diol] |
| 0.0298 µM | 1.23 µM | CC(=O)NCCn1cc(-c2cn[nH]c2)c2c(NCCCO)cc(Cl)c(Cl)c21 [Example 195, N-[2-[6,7-Dichloro-4-(3-hydroxypropylamino)-3-(1H-pyrazol-4-yl)indol-1-yl]ethyl]acetamide] |

| IC50 (recombinant human cGAS) | IC50 [1] | SMILES |
| --- | --- | --- |
| 0.064 µM | > 10 µM | NCCCCCC(=O)NCC(=O)NC1CCc2c(-c3cn[nH]c3)c3ccc(Cl)c(Cl)c3n2C1 (stereo not drawn) [Example 196, 6-Amino-N-[2-[[3,4-dichloro-10-(1H-pyrazol-4-yl)-6,7,8,9-tetrahydropyrido[1,2-a]indol-7-yl]amino]-2-oxo-ethyl]hexanamide formic acid salt] |
| 0.00893 µM | 1.06 µM | N#CCOc1cc(Cl)c(Cl)c2c1c(-c1cn[nH]c1)cn2-c1cn(CCO)nn1 [Example 197, 22-[6,7-Dichloro-1-[1-(2-hydroxyethyl)triazol-4-yl]-3-(1H-pyrazol-4-yl)indol-4-yl]oxyacetonitrile] |
| 0.011 µM | 0.395 µM | OCCCNc1cc(Cl)c(Cl)c2c1c(-c1cn[nH]c1)cn2-c1cn(CCO)nn1 [Example 198, 3-[[6,7-Dichloro-1-[1-(2-hydroxyethyl)triazol-4-yl]-3-(1H-pyrazol-4-yl)indol-4-yl]amino]propan-1-ol] |
| 0.0519 µM | 2.66 µM | CC(=O)Nc1cc(Cl)c(Cl)c2c1c(-c1cn[nH]c1)cn2-c1cn(CCO)nn1 [Example 199, N-[6,7-Dichloro-1-[1-(2-hydroxyethyl)triazol-4-yl]-3-(1H-pyrazol-4-yl)indol-4-yl]acetamide] |
| 0.0282 µM | 0.292 µM | OCCCNc1cc(Cl)cc2c1c(-c1cn[nH]c1)cn2-c1cn(CCO)nn1 [Example 200, 3-[[6-Chloro-1-[1-(2-hydroxyethyl)triazol-4-yl]-3-(1H-pyrazol-4-yl)indol-4-yl]amino]propan-1-ol] |
| 0.0777 µM | 4.23 µM | CC(=O)Nc1cc(Cl)cc2c1c(-c1cn[nH]c1)cn2-c1cn(CCO)nn1 [Example 201, N-[6-Chloro-1-[1-(2-hydroxyethyl)triazol-4-yl]-3-(1H-pyrazol-4-yl)indol-4-yl]acetamide] |
| 0.0191 µM | 2.68 µM | CC(=O)NC1CCCn2c1c(-c1cn[nH]c1)c1c(OCC#N)cc(Cl)c(Cl)c12 (stereo not drawn) [Example 202, N-[3,4-Dichloro-1-(cyanomethoxy)-10-(1H-pyrazol-4-yl)-6,7,8,9-tetrahydropyrido[1,2-a]indol-9-yl]acetamide] |
| 0.00677 µM | 0.374 µM | Cc1nnc(N2CCn3c(c(-c4cn[nH]c4)c4c(OCC#N)cc(Cl)c(Cl)c43)C2)s1 [Example 203, 2-((6,7-Dichloro-2-(5-methyl-1,3,4-thiadiazol-2-yl)-10-(1H-pyrazol-4-yl)-1,2,3,4-tetrahydropyrazino[1,2-a]indol-9-yl)oxy)acetonitrile] |
| 0.0201 µM | 0.854 µM | N#CCOc1cc(Cl)c(Cl)c2c1c(-c1cn[nH]c1)c1n2CCN(c2ncccn2)C1 [Example 204, 2-[[6,7-Dichloro-10-(1H-pyrazol-4-yl)-2-pyrimidin-2-yl-3,4-dihydro-1H-pyrazino[1,2-a]indol-9-yl]oxy]acetonitrile] |
| 0.0287 µM | 1.32 µM | CC(CO)CNc1cc(Cl)c(Cl)c2[nH]cc(-c3cn[nH]c3)c12 (stereo not drawn) [Example 205, 3-[[6,7-Dichloro-3-(1H-pyrazol-4-yl)-1H-indol-4-yl]amino]-2-methyl-propan-1-ol] |
| 0.0421 µM | 1.28 µM | Clc1cc(OC2COC2)c2c(-c3cn[nH]c3)c[nH]c2c1Cl [Example 206, 6,7-Dichloro-4-(oxetan-3-yloxy)-3-(1H-pyrazol-4-yl)-1H-indole] |
| 0.042 µM | 1.63 µM | O[C@H]1C[C@@H](Oc2cc(Cl)c(Cl)c3[nH]cc(-c4cn[nH]c4)c23)C1 [Example 207, Cis-3-[[6,7-Dichloro-3-(1H-pyrazol-4-yl)-1H-indol-4-yl]oxy]cyclobutanol] |
| 0.0416 µM | 2.54 µM | F[C@H]1C[C@@H](Nc2cc(Cl)c(Cl)c3[nH]cc(-c4cn[nH]c4)c23)C1 [Example 208, Cis-6,7-Dichloro-N-(3-fluorocyclobutyl)-3-(1H-pyrazol-4-yl)-1H-indol-4-amine] |
| 0.0342 µM | 2.28 µM | OCCc1cc(-n2cc(-c3cn[nH]c3)c3ccc(Cl)c(Cl)c32)on1 [Example 211, 2-[5-[6,7-Dichloro-3-(1H-pyrazol-4-yl)indol-1-yl]isoxazol-3-yl]ethanol] |
| 0.0125 µM | > 10 µM | O=C(O)Cn1cc(-n2cc(-c3cn[nH]c3)c3ccc(Cl)c(Cl)c32)nn1 [Example 212, 2-[4-[6,7-Dichloro-3-(1H-pyrazol-4-yl)indol-1-yl]triazol-1-yl]acetic acid] |
| 0.0538 µM | 4.1 µM | NC(=O)Cn1cc(-n2cc(-c3cn[nH]c3)c3ccc(Cl)c(Cl)c32)nn1 [Example 213, 2-[4-[6,7-Dichloro-3-(1H-pyrazol-4-yl)indol-1-yl]triazol-1-yl]acetamide] |
